PubChem BioAssay (NCI)
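Growth conditions: 96-well plates. Treatment: test compound, 48 hours, 5 concentrations. Analysis: linear interpolation between bracketing concentrations; unreached endpoints set to highest concentration. GI50 is the concentration that inhibits growth by half. At the TGI there is no net growth.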

How the values were obtained:
Assay in all cases: NCI-60 cell line screen, 48 h; in the data active means GI50 below about 0.43 µM; inactive means the rest
[1] = test system: A498 renal
[2] = test system: COLO 205 colon
[3] = test system: HCT-116 colon
[4] = test system: HT29 colon
[5] = test system: MCF7 breast
[6] = test system: SR leukemia
[7] = test system: SW-620 colon
[8] = test system: DMS 114 small cell lung
[9] = test system: DMS 273 small cell lung
[10] = test system: KM20L2 colon
[11] = test system: LXFL 529 NSCLC
[12] = test system: MDA-N
[13] = test system: HOP-18 NSCLC

CCCC1=C(C(=O)OCC)C(c2ccccc2OC)C(C#N)=C(N)O1 (stereo unspecified)
> 100 µM: TGI [1] | TGI [2] | TGI [3] | TGI [4] | TGI [5] | TGI [6] | TGI [7]
inactive: GI50 [1] 62.2 µM | GI50 [2] 66.3 µM | GI50 [3] 31.8 µM | GI50 [4] 34.4 µM | GI50 [5] 28.4 µM | GI50 [6] 29.1 µM | GI50 [7] 27.8 µM

CC(=O)N1CC(=O)NC1=S
> 100 µM: TGI [2] | TGI [8] | TGI [9] | TGI [3] | TGI [4] | TGI [10] | TGI [11] | TGI [6] | TGI [7]

Nc1cccc2c1C1=NNC(=O)CC1C2 (stereo unspecified)
> 100 µM: TGI [1] | TGI [2] | TGI [8] | TGI [9] | TGI [3] | TGI [10] | TGI [5] | TGI [7]
> 22.9 µM: TGI [4]

C[C@H](N[C@H]1CCC[C@]1(O)C#Cc1ccc2c(c1)OCO2)c1ccccc1
> 25 µM: TGI [1] | TGI [2] | TGI [4] | TGI [5] | TGI [6]

COc1cc2c(cc1OC)C1Cc3cc(OC)c(OC)cc3C(C2)O1
> 100 µM: TGI [2] | TGI [3] | TGI [4] | TGI [5] | TGI [12] | TGI [7]

COc1cc(NC(=O)CSc2nc3ccccc3c(=O)n2CCc2ccccc2)cc(OC)c1OC
> 100 µM: TGI [5]
inactive: GI50 [5] 4.44 µM

CNS(=O)(=O)c1ccc2[nH]c(O)c(C3=Nc4ccccc4C3=O)c2c1
> 100 µM: TGI [1] | TGI [2] | TGI [3] | TGI [4] | TGI [12] | TGI [7]

Cc1ccc2ccc3ccc(C)nc3c2n1
> 44.7 µM: TGI [3]
1.34 µM: TGI [8]
> 100 µM: TGI [1] | TGI [2] | TGI [9] | TGI [13] | TGI [4] | TGI [10] | TGI [11] | TGI [12] | TGI [6] | TGI [7]
0.93 µM: TGI [5]

CCOC(=O)C(=O)Nc1c(CC)cccc1C(C)CC (stereo unspecified)
> 100 µM: TGI [1] | TGI [2] | TGI [8] | TGI [9] | TGI [3] | TGI [13] | TGI [4] | TGI [10] | TGI [11] | TGI [6] | TGI [7]

NC(=O)Nc1ccc(C(=O)NCCCNC(=O)c2ccc(NC(N)=O)cc2)cc1
> 100 µM: TGI [1] | TGI [2] | TGI [3] | TGI [4] | TGI [5] | TGI [12] | TGI [6] | TGI [7]

O=C(NCCNc1nccc(-c2c(-c3cccc(O)c3)nc3sccn23)n1)Nc1cccc(C(F)(F)F)c1
32.6 µM: TGI [1]
13.4 µM: TGI [7]
10.8 µM: TGI [4]
11.5 µM: TGI [3]
16 µM: TGI [5]
40 µM: TGI [6]
inactive: GI50 [1] 7.33 µM | GI50 [2] 3.36 µM | GI50 [3] 3.56 µM | GI50 [4] 3.45 µM | GI50 [5] 3.57 µM | GI50 [6] 6.08 µM | GI50 [7] 3.84 µM
12 µM: TGI [2]

C=Cc1cc(OC)c2c(c1)c(=O)oc1c2cc(OC)c2c(O)ccc(C3OC(C)C(O)C(C)(O)C3O)c21 (stereo unspecified)
0.00425 µM: TGI [12]
0.392 µM: TGI [13]
active: GI50 [1] 0.00121 µM | GI50 [3] 0.000308 µM | GI50 [4] 0.000815 µM | GI50 [5] 3.58e-05 µM | GI50 [7] 0.000502 µM
0.409 µM: TGI [2]
0.000187 µM: TGI [6]
0.161 µM: TGI [10]
0.0393 µM: TGI [8]
0.139 µM: TGI [9]
0.36 µM: TGI [5]
0.666 µM: TGI [4]
